Assay type in all cases: biochemical
Holding throughout (conditions): pH 8

Experiment [1] has as its target T1, FBS-AChE, immobilized (polyurethane coupled) (Bos taurus, UniProt P23795).
T1 sequence (P23795 31-613): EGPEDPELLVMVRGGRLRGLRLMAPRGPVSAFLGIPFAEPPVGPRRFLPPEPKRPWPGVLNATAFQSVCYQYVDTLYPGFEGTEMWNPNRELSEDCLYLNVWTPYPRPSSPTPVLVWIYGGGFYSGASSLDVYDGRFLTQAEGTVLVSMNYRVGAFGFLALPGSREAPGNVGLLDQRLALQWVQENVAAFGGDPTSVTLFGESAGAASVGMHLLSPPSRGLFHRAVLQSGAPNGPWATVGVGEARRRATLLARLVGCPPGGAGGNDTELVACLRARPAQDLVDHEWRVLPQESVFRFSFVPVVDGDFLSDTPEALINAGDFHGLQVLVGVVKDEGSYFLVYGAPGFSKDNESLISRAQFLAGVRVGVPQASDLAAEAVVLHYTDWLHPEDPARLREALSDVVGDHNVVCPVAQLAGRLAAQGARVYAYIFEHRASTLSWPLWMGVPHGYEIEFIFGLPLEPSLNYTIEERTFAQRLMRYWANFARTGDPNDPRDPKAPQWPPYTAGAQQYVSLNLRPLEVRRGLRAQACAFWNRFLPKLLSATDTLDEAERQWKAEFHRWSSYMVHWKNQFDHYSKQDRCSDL

Experiment [2] concerns the target T2, FBS-AChE, soluble (Bos taurus, UniProt P23795).
T2 sequence (P23795 31-613): T1 sequence (P23795 31-613)

For experiment [3], the target named is Equine-BChE, immobilized (polyurethane coupled) (Equus caballus, UniProt P81908).
Chain of Equine-BChE, immobilized (polyurethane coupled) (P81908 whole entry): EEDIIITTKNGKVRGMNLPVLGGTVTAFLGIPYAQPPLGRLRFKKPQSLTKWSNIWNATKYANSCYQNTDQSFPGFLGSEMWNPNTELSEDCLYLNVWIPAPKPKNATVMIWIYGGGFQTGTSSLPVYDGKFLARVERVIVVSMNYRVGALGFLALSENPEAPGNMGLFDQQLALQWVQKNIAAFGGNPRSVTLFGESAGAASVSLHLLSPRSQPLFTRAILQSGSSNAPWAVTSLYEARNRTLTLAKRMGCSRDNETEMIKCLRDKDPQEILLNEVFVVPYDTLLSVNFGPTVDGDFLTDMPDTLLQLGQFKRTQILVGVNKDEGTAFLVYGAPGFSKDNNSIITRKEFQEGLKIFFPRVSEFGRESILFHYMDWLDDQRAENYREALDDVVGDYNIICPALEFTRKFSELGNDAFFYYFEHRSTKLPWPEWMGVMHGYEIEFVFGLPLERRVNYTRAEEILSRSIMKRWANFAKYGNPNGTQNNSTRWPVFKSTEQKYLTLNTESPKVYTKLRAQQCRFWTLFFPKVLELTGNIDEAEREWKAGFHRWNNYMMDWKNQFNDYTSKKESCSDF
The target of experiment [4] is Equine-BChE, soluble (Equus caballus, UniProt P81908).
Chain of Equine-BChE, soluble (P81908 whole entry): as above

This note sets out measurements from patent publication EP1175509B1 (priority 1999, dated 2000).

The structures appear in SMILES notation.

Consider `CC(=O)SCC[N+](C)(C)C.[I-]` [acetylthiocholine, Acetylthiocholine iodide], for which, in experiment [1], the Kcat was determined as 983 s⁻¹, the Km came to 1090 µM and the Kss stood at 22 mM. Moreover, in experiment [2], the Kcat was 4670 s⁻¹, the Km came to 119 µM and the Kss is recorded as 18 mM.

`CCCC(=O)SCC[N+](C)(C)C.[I-]` [butyrylthiocholine, S-butyrylthiocholine iodide]: in experiment [3], the Kcat was 300 s⁻¹, the Km is 1200 µM and the Kss came to 16 mM. Also, in experiment [4], the B was determined as 1.8, the Kcat is 517 s⁻¹, the Km is 127 µM and the Kss was 1.5 mM.

For orientation: Km means the substrate concentration at which the rate is half of its maximum.
